Source: PMC8214221, “Sequence determinants in the cathelicidin LL-37 that promote inflammation via presentation of RNA to scavenger receptors” (The Journal of Biological Chemistry, 2021)
Residues, ends and D or L forms follow the SMILES beside them.

What was measured:
[1] = tested on: TBK1 and IRF7 phosphorylation in NHEKs; test: Immunoblot of MAVS pathway signaling in NHEKs; type: cell-based, human; conditions: U1 dsRNA 2.5 μg/ml + peptide 2 μM, in comparison to U1 + LL-34 parent
From the text: RNA-Seq was utilized to obtain a global transcriptomic profile and map unique immune pathways in NHEKs exposed to U1 dsRNA, LL-34 parent, Pep I24A, Pep L31A, and a combination of U1 dsRNA and LL-34 parent, Pep I24A, or Pep L31A. […] Similarly, 448 and 325 unique differentially regulated genes were observed after U1 + I24A and U1 + L31A treatments, respectively (Fig. 3, A and B and Fig. S2, A and B). […] These pathways included type 1 interferon signaling, cytokine signaling, response to external biotic stimulus, and cytokine-mediated signaling pathway. […] We verified the repression of mitochondrial antiviral signaling (MAVS) with immunoblot analysis. […]
Figure 3 LL-34 I24A and L31A mutations result in loss of innate immune vetting of U1 dsRNA leading to repressed activation of antiviral and innate immune pathways.A, Venn diagram for all differentially expressed genes from NHEKs treated with U1 dsRNA, LL-34-parent, and combinations of either U1 dsRNA and LL-34-parent. […] Protein expression of p-TBK1, TBK1, p-IRF7, IRF7, p-Akt, Akt, p-ERK1/2, and ERK1/2 was assessed with immunoblot. […]
Cells were lysed in complete radioimmunoprecipitation assay buffer with added 1× protease and Phosphatase Inhibitor Cocktail (Life Technologies). […] Total protein was quantified for each treatment with Bio-Rad Protein Assay (Bio-Rad). […]

[2] = tested on: S. aureus strain USA300 and SA112, GAS; test: Bacterial growth inhibition (OD600), Gram-positive strains; type: cell-based, Staphylococcus aureus; group A Streptococcus; conditions: 0-50 µM overnight, OD 600, n = 3, S. aureus USA300, SA113 (SA112 in text)
Description: We further looked at mRNA abundance by quantitative RT-PCR (qRT-PCR) to evaluate gene expression for type 1 interferon IFNB1, chemokine CXCL10, and cytokines TSLP and IL6 in NHEKs treated with selected LL-34 parent, LL-34—F5A, I24A, F27A, and L31A—peptides either alone or in combination with U1 dsRNA for 18 h (Fig. 1, E–H).
Methicillin-resistant S. aureus USA300 and methicillin-sensitive S. aureus SA113 (American Type Culture Collection 35556) were cultured in 3% tryptic soy broth overnight at 37 °C with shaking at 250 rpm. GAS M49 strain NZ131 was cultured in Todd Hewitt broth supplemented with 1% yeast extract overnight at 37 °C without shaking. E. coli R1 strain RS218 was cultured in LB broth overnight at 37 °C with shaking at 250 rpm. MIC values were determined using a round-bottom 96-well microdilution method with RPMI cell culture media (as a source of Ca^2+ and Mg^2+) supplemented with tryptic soy broth, Todd Hewitt broth/yeast extract, or LB to facilitate growth of the respective bacterial strains. Overnight bacterial cultures were subcultured into fresh broth and grown to midlate log phase indicated by an absorbance at 600 nm value between 0.8 and 1.0 for each bacterial strain. The absorbance was then normalized to provide a concentration of 1 × 10^7 colony-forming units/ml in RPMI medium. The LL-34 parent and alanine scan mutants were serially diluted into the 96-well microtiter plates containing prewarmed RPMI bacterial growth medium. A 10 μl aliquot of the midlate log phase bacteria was inoculated into the 96-well microtiter plates that contained 95 μl of RPMI medium with or without the LL-34 peptide dilutions and incubated for 16 to 18 h at […] with shaking at 200 rpm. Inhibition of growth was determined by measuring the absorbance at 600 nm readings of each well using a microplate reader (Infinite M200 Pro; Tecan). The MIC of each bacterial strain was determined by the lowest peptide concentration that inhibited more than 80% bacterial growth.
(A) NHEKs and HDMECs (B) were treated with LL34- parent peptide and all the 34 alanine substituted peptides (Pep L1A-Pep R34A) and LL37 at 2 µM for 16 h. IL-6 protein secretion was assessed with ELISA (n=3) (C-F) LL34-Parent, LL34 F5A, LL34 I24A, LL34 F27A, and LL34 L31A peptides were incubated with S. aureus USA 300, S. aureus SA113, Group A Streptococcus (GAS) and E. coli at increasing concentrations (0-50 µM) overnight, and bacterial culture growth was assayed as absorbance at OD 600 (n=3).

CC[C@H](C)[C@H](NC(=O)[C@H](CCCCN)NC(=O)[C@H](CCC(=O)O)NC(=O)[C@H](CCCCN)NC(=O)[C@H](CO)NC(=O)[C@H](CCCCN)NC(=O)[C@H](CCCNC(=N)N)NC(=O)[C@H](Cc1ccccc1)NC(=O)[C@H](Cc1ccccc1)NC(=O)[C@H](CC(=O)O)NC(=O)CNC(=O)[C@H](CC(C)C)NC(=O)[C@@H](N)CC(C)C)C(=O)NCC(=O)N[C@@H](CCCCN)C(=O)N[C@@H](CCC(=O)O)C(=O)N[C@@H](Cc1ccccc1)C(=O)N[C@@H](CCCCN)C(=O)N[C@@H](CCCNC(=N)N)C(=O)N[C@H](C(=O)N[C@H](C(=O)N[C@@H](CCC(N)=O)C(=O)N[C@@H](CCCNC(=N)N)C(=O)N[C@@H](C)C(=O)N[C@@H](CCCCN)C(=O)N[C@@H](CC(=O)O)C(=O)N[C@@H](Cc1ccccc1)C(=O)N[C@@H](CC(C)C)C(=O)N[C@@H](CCCNC(=N)N)C(=O)N[C@@H](CC(N)=O)C(=O)N[C@@H](CC(C)C)C(=O)N[C@H](C(=O)N1CCC[C@H]1C(=O)N[C@@H](CCCNC(=N)N)C(=O)O)C(C)C)C(C)C)[C@@H](C)CC [LL-34—I24A] (H-LLGDFFRKSKEKIGKEFKRIVQRAKDFLRNLVPR-OH) was tested, and the “Phosphorylation of TBK1 and IRF7” value [1] was “Decreased phosphorylation” and the “Capacity to inhibit growth of Gram-positive bacteria” value [2] was “increased capacity to inhibit growth of most of the tested Gram-positive bacteria”.
CC[C@H](C)[C@H](NC(=O)[C@H](CCCCN)NC(=O)[C@H](CCC(=O)O)NC(=O)[C@H](CCCCN)NC(=O)[C@H](CO)NC(=O)[C@H](CCCCN)NC(=O)[C@H](CCCNC(=N)N)NC(=O)[C@H](Cc1ccccc1)NC(=O)[C@H](Cc1ccccc1)NC(=O)[C@H](CC(=O)O)NC(=O)CNC(=O)[C@H](CC(C)C)NC(=O)[C@@H](N)CC(C)C)C(=O)NCC(=O)N[C@@H](CCCCN)C(=O)N[C@@H](CCC(=O)O)C(=O)N[C@@H](Cc1ccccc1)C(=O)N[C@@H](CCCCN)C(=O)N[C@@H](CCCNC(=N)N)C(=O)N[C@H](C(=O)N[C@H](C(=O)N[C@@H](CCC(N)=O)C(=O)N[C@@H](CCCNC(=N)N)C(=O)N[C@H](C(=O)N[C@@H](CCCCN)C(=O)N[C@@H](CC(=O)O)C(=O)N[C@@H](Cc1ccccc1)C(=O)N[C@@H](CC(C)C)C(=O)N[C@@H](CCCNC(=N)N)C(=O)N[C@@H](CC(N)=O)C(=O)N[C@@H](C)C(=O)N[C@H](C(=O)N1CCC[C@H]1C(=O)N[C@@H](CCCNC(=N)N)C(=O)O)C(C)C)[C@@H](C)CC)C(C)C)[C@@H](C)CC [LL-34—L31A] (H-LLGDFFRKSKEKIGKEFKRIVQRIKDFLRNAVPR-OH) was tested, and the “Phosphorylation of TBK1 and IRF7” value [1] was “Decreased phosphorylation” and the “Capacity to inhibit growth of Gram-positive bacteria” value [2] was “increased capacity to inhibit growth of most of the tested Gram-positive bacteria”.
